Where two headings read alike, the source gives them in different places.
Experiments:
[1] = system: HTLV-III (strain RF) grown in C8166 cells; test: Activity against HIV (p24 antigen capture assay in infected C8166 cells); type: cell-based; conditions: Human immunodeficiency virus 1, concentration that produces 50% protection, 72 hours, viral protein 24 antigen capture, read-out: I50 Activity against HIV
Method: This assay uses HTLV-III (strain RF) grown in C8166 cells (a human CD4^+ T lymphoblastoid line) using RPM1 1640 medium with bicarbonate buffer, antibiotics and 10% fetal bovine serum.
A suspension of cells is infected with ten times the TCD50 of virus and adsorption allowed to proceed for 90 minutes at 37° C. The cells are washed three times with medium. The test is carried out in 6 ml tissue culture tubes, each tube containing 2×10^5 infected cells in 1.5 ml of medium. Test compounds are dissolved in either aqueous medium or dimethyl sulphoxide, according to solubility, and a 15 μl solution of the substance added. The cultures are incubated at 37° C. for 72 hours in a humidified atmosphere containing 5% carbon dioxide in air. The cultures are then centrifuged and an aliquot of the supernatant solubilized with Nonidet P40 and subjected to an antigen capture assay which uses a primary antiserum with particular reactivity against the viral protein 24 and a horseradish peroxidase detection system. Color generation is measured spectrophotometrically and plotted against the concentration of test substance. The concentration that produces 50% protection is determined. (I50).

HIV protease = HIV protease (Human immunodeficiency virus type 1 group M subtype B, UniProt P04585); test: In vitro inhibition of HIV protease (spectrophotometric assay of N-terminal proline from peptide substrate cleavage); type: biochemical; conditions: citrate buffer pH 5.5, 37° C.
Method: HIV protease was expressed in E. coli and partially purified from soluble extracts of the bacterium by ammonium sulphate fractionation (0-30%). […] Cleavage of the substrate was quantified by measuring the production of H-Pro-Ile isobutylamide by the spectrophotometric assay of N-terminal proline.
1.25 mM of substrate were dissolved in 125 mM of citrate buffer (pH 5.5) containing 0.125 mg/ml of Tween 20. […] The solution was heated in a water bath and then the pigmented residues were re-dissolved in 1 ml of 1% pyrogallol in 33% water in acetone (wt./vol./vol.). The optical density of the solution was measured spectrophotometrically at 599 nm.

Row | Structure (SMILES) | IC50 [1] [nM] | IC50 (HIV protease; substrate S^1: succinyl-Ser-Leu-Asn-Tyr-Pro-Ile isobutylamide, read-out: I50 Inhibition of HIV protease, S^1) [nM] | IC50 (HIV protease; substrate S^2: succinyl-Val-Ser-Gln-Asn-Phe-Pro-Ile isobutylamide, read-out: I50 Inhibition of HIV protease, S^2) [nM]
1 | CC(C)(C)NC(=O)[C@@H]1C[C@@H]2CCCC[C@@H]2CN1C[C@@H](O)[C@H](Cc1ccccc1)NC(=O)[C@H](CC(N)=O)NC(=O)c1ccc2ccccc2n1 [2-Quinolylcarbonyl, N-tert.butyl-decahydro-2-[2(R)-hydroxy-4-phenyl-3(S)-[[N-(2-quinolylcarbonyl)-L-asparaginyl]amino]butyl]-(4aS,8aS)-isoquinoline-3(S)-carboxamide] | 2 |  | 
2 | CC(C)(C)NC(=O)[C@@H]1C[C@@H]2CCCC[C@@H]2CN1C[C@@H](O)[C@H](Cc1ccccc1)NC(=O)[C@H](CC(N)=O)NC(=O)OCc1ccccc1 [Benzyloxycarbonyl, 2-[3(S)-[[N-(benzyloxycarbonyl)-L-asparaginyl]amino]-2(R)-hydroxy-4-phenylbutyl]-N-tert.butyl-decahydro-(4aS,8aS)-isoquinoline-3(S)-carboxamide] | 20 | < 24 | < 2.7

Source: patent US5196438A, “Amino acid derivatives” (Hoffmann-La Roche Inc., priority 1989, dated 1993)
